Columns and labels:
Experiment in all cases: biochemical
Parameters in all cases: CEREP ExpresSProfile competition binding, remaining control specific binding of reference compound
Conditions in all cases: radioligand binding; read-out: Mean % of control specific binding (±sd)
[1] = target: T1, MT1 (ML1A) (h) (Homo sapiens, UniProt P48039)
T1 construct: gene MTNR1A

[2] = target: T2, MC4 (h) (Homo sapiens, UniProt P32245)
T2 construct: gene MC4R

[3] = target: T3, 5-HT1B (Rattus norvegicus, UniProt P28564)
T3 construct: gene Htr1b; rat cerebral cortex

[4] = target: T4, 5-HT transporter (h) (Homo sapiens, UniProt P31645)
T4 construct: gene SLC6A4

[5] = target: T5, 5-HT1A (h) (Homo sapiens, UniProt P08908)
T5 construct: gene HTR1A

[6] = target: T6, mu (MOP) (h) (Homo sapiens, UniProt P35372)
T6 construct: gene OPRM1
T6 sequence (P35372 whole entry): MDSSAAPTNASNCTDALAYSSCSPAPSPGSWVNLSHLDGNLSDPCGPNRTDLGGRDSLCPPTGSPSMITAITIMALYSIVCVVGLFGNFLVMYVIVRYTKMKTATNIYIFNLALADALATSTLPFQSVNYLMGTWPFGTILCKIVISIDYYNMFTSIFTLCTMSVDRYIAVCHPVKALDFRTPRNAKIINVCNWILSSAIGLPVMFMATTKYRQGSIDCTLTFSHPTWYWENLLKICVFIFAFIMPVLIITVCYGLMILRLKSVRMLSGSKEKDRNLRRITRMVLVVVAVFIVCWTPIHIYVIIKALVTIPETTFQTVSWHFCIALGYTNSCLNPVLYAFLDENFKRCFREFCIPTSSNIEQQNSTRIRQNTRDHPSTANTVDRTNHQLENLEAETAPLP

[7] = target: T7, kappa (KOP) (Rattus norvegicus, UniProt P34975)
T7 construct: gene Oprk1

[8] = target: T8, M1 (h) (Homo sapiens, UniProt P11229)
T8 construct: gene CHRM1

[9] = target: T9, beta 1 (h) (Homo sapiens, UniProt P08588)
T9 construct: gene ADRB1

[10] = target: T10, A3 (h) (Homo sapiens, UniProt P0DMS8)
T10 construct: gene ADORA3
T10 sequence (P0DMS8 whole entry): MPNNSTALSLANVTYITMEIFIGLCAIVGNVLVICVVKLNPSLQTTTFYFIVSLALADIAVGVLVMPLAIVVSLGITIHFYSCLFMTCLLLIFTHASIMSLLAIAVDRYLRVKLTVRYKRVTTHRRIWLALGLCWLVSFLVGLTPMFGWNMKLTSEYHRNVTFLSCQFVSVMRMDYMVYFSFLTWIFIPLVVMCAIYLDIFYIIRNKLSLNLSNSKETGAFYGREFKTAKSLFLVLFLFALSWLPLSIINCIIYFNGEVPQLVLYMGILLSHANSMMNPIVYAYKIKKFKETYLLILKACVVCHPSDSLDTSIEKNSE

[11] = target: T11, 5-HT6 (h) (Homo sapiens, UniProt P50406)
T11 construct: gene HTR6

[12] = target: T12, AT1 (h) (Homo sapiens, UniProt P30556)
T12 construct: gene AGTR1

[13] = target: T13, EP4 (h) (Homo sapiens, UniProt P35408)
T13 construct: gene PTGER4
T13 sequence (P35408 whole entry): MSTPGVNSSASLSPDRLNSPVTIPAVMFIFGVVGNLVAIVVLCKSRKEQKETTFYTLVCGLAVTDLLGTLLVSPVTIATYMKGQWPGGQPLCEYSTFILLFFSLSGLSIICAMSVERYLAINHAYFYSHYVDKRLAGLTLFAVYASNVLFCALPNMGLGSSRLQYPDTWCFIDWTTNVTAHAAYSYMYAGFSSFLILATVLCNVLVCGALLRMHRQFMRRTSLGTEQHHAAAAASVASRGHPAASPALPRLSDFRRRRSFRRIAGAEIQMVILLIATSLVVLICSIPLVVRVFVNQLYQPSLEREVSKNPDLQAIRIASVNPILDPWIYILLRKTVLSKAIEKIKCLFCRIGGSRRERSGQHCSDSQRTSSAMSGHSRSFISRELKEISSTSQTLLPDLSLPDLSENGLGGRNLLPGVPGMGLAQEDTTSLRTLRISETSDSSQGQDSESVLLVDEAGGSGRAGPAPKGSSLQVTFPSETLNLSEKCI

[14] = target: T14, NK2 (h) (Homo sapiens, UniProt P21452)
T14 construct: gene TACR2

[15] = target: T15, dopamine transporter (h) (Homo sapiens, UniProt Q01959)
T15 construct: gene SLC6A3

[16] = target: T16, NK3 (h) (Homo sapiens, UniProt P29371)
T16 construct: gene TACR3

[17] = target: T17, CB1 (h) (Homo sapiens, UniProt P21554)
T17 construct: gene CNR1
T17 sequence (P21554 whole entry): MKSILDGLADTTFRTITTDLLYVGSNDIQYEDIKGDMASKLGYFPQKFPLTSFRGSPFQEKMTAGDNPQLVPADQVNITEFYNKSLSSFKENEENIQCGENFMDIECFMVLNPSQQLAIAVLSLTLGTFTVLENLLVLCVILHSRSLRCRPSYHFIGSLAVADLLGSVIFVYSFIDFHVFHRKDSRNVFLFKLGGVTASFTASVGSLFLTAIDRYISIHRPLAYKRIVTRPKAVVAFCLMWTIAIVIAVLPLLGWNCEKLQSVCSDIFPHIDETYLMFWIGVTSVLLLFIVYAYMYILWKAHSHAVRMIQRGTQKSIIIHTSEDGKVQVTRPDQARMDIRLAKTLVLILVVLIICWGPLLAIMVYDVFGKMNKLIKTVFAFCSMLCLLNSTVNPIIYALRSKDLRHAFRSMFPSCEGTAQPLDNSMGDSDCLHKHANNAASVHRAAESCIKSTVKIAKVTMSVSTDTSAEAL

[18] = target: T18, NTS1 (NT1) (h) (Homo sapiens, UniProt P30989)
T18 construct: gene NTSR1

[19] = target: T19, norepinephrine transporter (h) (Homo sapiens, UniProt P23975)
T19 construct: gene SLC6A2
T19 sequence (P23975 whole entry): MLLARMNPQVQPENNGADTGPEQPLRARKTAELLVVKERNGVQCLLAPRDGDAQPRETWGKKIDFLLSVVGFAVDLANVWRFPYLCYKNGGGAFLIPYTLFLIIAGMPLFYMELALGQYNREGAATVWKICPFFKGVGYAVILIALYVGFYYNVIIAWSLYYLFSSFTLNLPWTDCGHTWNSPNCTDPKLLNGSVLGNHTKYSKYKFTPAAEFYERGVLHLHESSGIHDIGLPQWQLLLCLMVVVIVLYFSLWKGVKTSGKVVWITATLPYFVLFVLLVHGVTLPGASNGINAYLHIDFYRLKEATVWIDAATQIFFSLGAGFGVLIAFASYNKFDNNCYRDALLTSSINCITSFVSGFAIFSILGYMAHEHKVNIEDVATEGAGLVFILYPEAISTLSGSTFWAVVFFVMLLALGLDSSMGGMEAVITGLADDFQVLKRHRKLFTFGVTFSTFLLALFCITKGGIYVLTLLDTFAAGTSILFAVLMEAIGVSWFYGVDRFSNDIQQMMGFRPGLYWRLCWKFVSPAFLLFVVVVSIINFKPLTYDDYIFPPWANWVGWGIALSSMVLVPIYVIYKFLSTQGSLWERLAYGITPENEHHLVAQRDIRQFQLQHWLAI

[20] = target: T20, 5-HT7 (h) (Homo sapiens, UniProt P34969)
T20 construct: gene HTR7
T20 sequence (P34969 whole entry): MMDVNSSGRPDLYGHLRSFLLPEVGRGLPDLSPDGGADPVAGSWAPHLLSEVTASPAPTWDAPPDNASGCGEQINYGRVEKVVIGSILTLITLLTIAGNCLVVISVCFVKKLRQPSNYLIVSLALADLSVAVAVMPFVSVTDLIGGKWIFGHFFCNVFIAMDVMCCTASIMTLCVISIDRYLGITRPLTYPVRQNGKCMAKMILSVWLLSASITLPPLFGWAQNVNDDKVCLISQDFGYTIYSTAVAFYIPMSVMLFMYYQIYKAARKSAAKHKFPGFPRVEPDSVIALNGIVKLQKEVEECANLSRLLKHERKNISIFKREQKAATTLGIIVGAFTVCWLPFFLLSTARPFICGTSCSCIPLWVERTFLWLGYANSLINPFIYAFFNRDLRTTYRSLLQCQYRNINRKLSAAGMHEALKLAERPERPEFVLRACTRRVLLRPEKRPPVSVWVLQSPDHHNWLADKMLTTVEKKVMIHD

[21] = target: T21, ETA (h) (Homo sapiens, UniProt P25101)
T21 construct: gene EDNRA

[22] = target: T22, beta 2 (h) (Homo sapiens, UniProt P07550)
T22 construct: gene ADRB2
T22 sequence (P07550 whole entry): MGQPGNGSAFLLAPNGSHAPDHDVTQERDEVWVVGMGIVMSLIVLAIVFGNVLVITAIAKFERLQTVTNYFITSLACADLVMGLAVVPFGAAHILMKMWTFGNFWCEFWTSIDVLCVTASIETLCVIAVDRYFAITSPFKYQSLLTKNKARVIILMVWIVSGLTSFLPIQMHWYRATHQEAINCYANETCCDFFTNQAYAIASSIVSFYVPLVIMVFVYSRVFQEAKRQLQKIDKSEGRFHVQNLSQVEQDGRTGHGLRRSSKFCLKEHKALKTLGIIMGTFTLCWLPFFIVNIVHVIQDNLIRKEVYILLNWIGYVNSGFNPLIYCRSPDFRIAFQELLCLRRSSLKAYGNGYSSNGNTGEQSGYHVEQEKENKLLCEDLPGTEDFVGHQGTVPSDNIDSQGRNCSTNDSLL

[23] = target: T23, NOP (ORL1) (h) (Homo sapiens, UniProt P41146)
T23 construct: gene OPRL1
T23 sequence (P41146 whole entry): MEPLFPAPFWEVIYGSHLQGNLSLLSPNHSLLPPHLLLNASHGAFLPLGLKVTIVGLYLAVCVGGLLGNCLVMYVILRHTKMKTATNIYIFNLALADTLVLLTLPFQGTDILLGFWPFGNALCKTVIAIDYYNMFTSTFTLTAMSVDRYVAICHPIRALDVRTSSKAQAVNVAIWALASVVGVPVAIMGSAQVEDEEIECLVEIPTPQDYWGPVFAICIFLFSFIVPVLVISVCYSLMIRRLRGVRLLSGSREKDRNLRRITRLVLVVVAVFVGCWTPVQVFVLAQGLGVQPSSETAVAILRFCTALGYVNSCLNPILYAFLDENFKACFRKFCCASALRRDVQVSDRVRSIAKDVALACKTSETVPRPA

[24] = target: CCR1 (h) (Homo sapiens, UniProt P32246)
Chain of CCR1 (h) (P32246 whole entry): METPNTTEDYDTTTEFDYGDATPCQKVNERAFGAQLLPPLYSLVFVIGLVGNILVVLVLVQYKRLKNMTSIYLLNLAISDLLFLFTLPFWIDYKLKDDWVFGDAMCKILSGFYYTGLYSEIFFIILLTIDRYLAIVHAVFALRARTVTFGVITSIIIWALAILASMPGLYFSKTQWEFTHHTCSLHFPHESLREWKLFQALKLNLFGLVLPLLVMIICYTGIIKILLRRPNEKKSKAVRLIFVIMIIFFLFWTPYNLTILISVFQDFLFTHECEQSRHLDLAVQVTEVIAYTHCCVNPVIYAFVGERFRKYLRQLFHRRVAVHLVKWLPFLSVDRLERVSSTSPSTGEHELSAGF

[25] = target: T24, CCK1 (CCKA) (h) (Homo sapiens, UniProt P32238)
T24 construct: gene CCKAR
T24 sequence (P32238 whole entry): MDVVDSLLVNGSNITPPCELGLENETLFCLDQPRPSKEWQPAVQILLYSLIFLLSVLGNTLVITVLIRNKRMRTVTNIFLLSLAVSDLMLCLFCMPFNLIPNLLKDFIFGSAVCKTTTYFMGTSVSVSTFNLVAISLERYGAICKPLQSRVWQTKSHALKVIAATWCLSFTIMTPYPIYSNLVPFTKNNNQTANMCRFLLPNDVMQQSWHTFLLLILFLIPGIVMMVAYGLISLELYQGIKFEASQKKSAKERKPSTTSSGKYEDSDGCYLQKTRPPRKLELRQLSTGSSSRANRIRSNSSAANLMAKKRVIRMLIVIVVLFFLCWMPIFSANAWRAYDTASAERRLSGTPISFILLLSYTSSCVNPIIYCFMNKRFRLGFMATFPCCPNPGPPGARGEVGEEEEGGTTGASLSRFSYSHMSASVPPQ

T2 sequence (P32245 whole entry): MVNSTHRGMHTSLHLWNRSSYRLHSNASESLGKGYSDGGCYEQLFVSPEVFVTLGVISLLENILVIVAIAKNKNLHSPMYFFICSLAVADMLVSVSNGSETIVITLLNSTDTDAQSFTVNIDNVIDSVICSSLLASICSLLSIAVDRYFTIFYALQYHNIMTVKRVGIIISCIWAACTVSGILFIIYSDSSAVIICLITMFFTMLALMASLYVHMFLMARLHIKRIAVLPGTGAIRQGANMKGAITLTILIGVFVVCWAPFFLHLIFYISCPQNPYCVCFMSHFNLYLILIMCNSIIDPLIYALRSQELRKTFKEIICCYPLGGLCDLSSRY

SMILES: Cc1ncsc1-c1ccc(CNC(=O)[C@@H]2C[C@@H](O)CN2C(=O)[C@@H](NC(=O)C2(C#N)CC2)C(C)(C)C)cc1 [VH298]
- remaining binding at 50 µM [1]: 75%
- remaining binding at 50 µM [2]: 98%
- remaining binding at 50 µM [3]: 117%
- remaining binding at 50 µM [4]: 92%
- remaining binding at 50 µM [5]: 82%
- remaining binding at 50 µM [6]: 106%
- remaining binding at 50 µM [7]: 92%
- remaining binding at 50 µM [8]: 94%
- remaining binding at 50 µM [9]: 83%
- remaining binding at 50 µM [10]: 55%
- remaining binding at 50 µM [11]: 92%
- remaining binding at 50 µM [12]: 84%
- remaining binding at 50 µM [13]: 95%
- remaining binding at 50 µM [14]: 73%
- remaining binding at 50 µM [15]: 90%
- remaining binding at 50 µM [16]: 94%
- remaining binding at 50 µM [17]: 115%
- remaining binding at 50 µM [18]: 103%
- remaining binding at 50 µM [19]: 96%
- remaining binding at 50 µM [20]: 99%
- remaining binding at 50 µM [21]: 88%
- remaining binding at 50 µM [22]: 95%
- remaining binding at 50 µM [23]: 92%
- remaining binding at 50 µM [24]: 111%
- remaining binding at 50 µM [25]: 127%

Reference: PMC5097156, “Potent and selective chemical probe of hypoxic signalling downstream of HIF-α hydroxylation via VHL inhibition” (Nature Communications, 2016)
